Test results: US20230312481A1, “SUBSTITUTED (PHTHALAZIN-1-YLMETHYL)UREAS, SUBSTITUTED N-(PHTHALAZIN-1-YLMETHYL)AMIDES, AND ANALOGUES THEREOF” (priority 2020, published 2023)

test system: HBV rcDNA in HepDE19 cells; assay: HepDE19 assay with bDNA quantitation of HBV rcDNA; type: cell-based, hepatitis B virus; details: HepDE19 cells, 7 day incubation, rcDNA measured by Quantigene 2.0 bDNA assay; top concentration 25 µM; read-out: DE-19bDNA EC50
Method: HepDE19 Assay With bDNA Quantitation of HBV rcDNA
HepDE19 (50,000 cells/well) were plated in 96-well collagen-coated tissue-culture treated microtiter plates in DMEM/F12 medium supplemented with 10% fetal bovine serum, 1% penicillin-streptomycin and 1 µg/mL tetracycline and incubated in a humidified incubator at 37° C. and 5% CO2 overnight. Next day, the cells were switched to fresh medium without tetracycline and incubated for 4 hours at 37° C. and 5% CO2. […] The final DMSO concentration in the assay was 0.5%. The plates were incubated for 7 days in a humidified incubator at 37° C. and 5% CO2. Following a 7 day-incubation, the level of rcDNA present in the inhibitor-treated wells was measured using a Quantigene 2.0 bDNA assay kit (Affymetrix, Santa Clara, CA) with HBV specific custom probe set and manufacturers instructions. Concurrently, the effect of compounds on cell viability was assessed using replicate plates, plated at a density of 5,000 cells/well and incubated for 4 days, to determine the ATP content as a measure of cell viability using the cell-titer glo reagent (CTG; Promega Corporation, Madison, WI) as per manufacturer’s instructions.
Representative compounds of the disclosure were tested for their abilities to inhibit formation of relaxed circular DNA (rcDNA) in a HepDE19 assay, as described elsewhere herein.

SMILES | EC50 [nM]
CC(c1n[nH]c(=O)c2cc(F)c(F)cc12)N(C)C(=O)c1ccc2[nH]ncc2c1 (single isomer, unassigned) [Compound 110, N-(1-(6,7-difluoro-4-oxo-3,4-dihydrophthalazin-1-yl)ethyl)-N-methyl-1H-indazole-5-carboxamide] | > 25000
CC(c1n[nH]c(=O)c2cc(F)c(F)cc12)N(C)C(=O)c1ccc2ncsc2c1 (single isomer, unassigned) [Compound 86, N-(1-(6,7-difluoro-4-oxo-3,4-dihydrophthalazin-l-yl)ethyl)-N-methylbenzo[d]thiazole-6-carboxamide] | ≥ 25000
CC(c1n[nH]c(=O)c2cc(F)c(F)cc12)N(C)C(=O)c1cc(F)c(Cl)c(F)c1 (single isomer, unassigned) [Compound 95, 4-chloro-N-(1-(6,7-difluoro-4-oxo-3,4-dihydrophthalazin-1-yl)ethyl)-3,5-difluoro-N-methylbenzamide] | 80
CC(c1n[nH]c(=O)c2cc(F)c(F)cc12)N(C)C(=O)c1cc2sc(F)cc2[nH]1 (single isomer, unassigned) [Compound 103, N-(1-(6,7-difluoro-4-oxo-3,4-dihydrophthalazin-1-yl)ethyl)-2-fluoro-N-methyl-4H-thieno[3,2-b]pyrrole-5-carboxamide] | 60
CC(c1n[nH]c(=O)c2cc(F)c(F)cc12)N(C)C(=O)c1cc2sc(F)cc2[nH]1 (single isomer, unassigned) [Compound 102, N-(1-(6,7-difluoro-4-oxo-3,4-dihydrophthalazin-1-yl)ethyl)-2-fluoro-N-methyl-4H-thieno[3,2-b]pyrrole-5-carboxamide] | 3770
CC(c1n[nH]c(=O)c2cc(F)c(F)cc12)N(C)C(=O)c1ccc2c(ccn2C)c1 (single isomer, unassigned) [Compound 106, N-(1-(6,7-difluoro-4-oxo-3,4-dihydrophthalazin-1-yl)ethyl)-N,1-dimethyl-1H-indole-5-carboxamide] | 4030
CC(c1n[nH]c(=O)c2cc(F)c(F)cc12)N(C)C(=O)c1ccc2c(ccn2C)c1 (single isomer, unassigned) [Compound 107, N-(1-(6,7-difluoro-4-oxo-3,4-dihydrophthalazin-1-yl)ethyl)-N,1-dimethyl-1H-indole-5-carboxamide] | 110
CC(C)CN(C(=O)Nc1ccc(F)cc1)C(C)c1n[nH]c(=O)c2cc(F)ccc12 (single isomer, unassigned) [Compound 20, 1-(1-(6-fluoro-4-oxo-3,4-dihydrophthalazin-1-yl)ethyl)-3-(4-fluorophenyl)-1-isobutylurea] | 8
CC(c1n[nH]c(=O)c2cc(F)c(F)cc12)N(C)C(=O)c1ccc2c(c1)CCC2 (single isomer, unassigned) [Compound 82, N-(1-(6,7-difluoro-4-oxo-3,4-dihydrophthalazin-1-yl)ethyl)-N-methyl-2,3-dihydro-1H-indene-5-carboxamide] | 9010
CC(c1n[nH]c(=O)c2cc(F)c(F)cc12)N(C)C(=O)c1cc2sccc2[nH]1 (single isomer, unassigned) [Compound 80, N-(1-(6,7-difluoro-4-oxo-3,4-dihydrophthalazin-1-yl)ethyl)-N-methyl-4H-thieno[3,2-b]pyrrole-5-carboxamide] | 14100
CC(c1n[nH]c(=O)c2cc(F)c(F)cc12)N(C)C(=O)c1cc(F)c(C(F)F)c(F)c1 (single isomer, unassigned) [Compound 109, N-(1-(6,7-difluoro-4-oxo-3,4-dihydrophthalazin-1-yl)ethyl)-4-(difluoromethyl)-3,5-difluoro-N-methylbenzamide] | 110

same assay, conditions: Hepatitis B virus, HepDE19, 168 h, HepDE19 cells, 7 day incubation, rcDNA measured by Quantigene 2.0 bDNA assay; top concentration 25 µM; read-out: DE-19bDNA EC50

SMILES | EC50 [nM]
CC(c1n[nH]c(=O)c2cc(F)c(F)cc12)N(C)C(=O)c1cnc(C(F)(F)F)c(F)c1 (racemic) [Compound 114, N-(1-(6,7-difluoro-4-oxo-3,4-dihydrophthalazin-1-yl)ethyl)-5-fluoro-N-methyl-6-(trifluoromethyl)nicotinamide] | 4180
Cc1c(C(=O)N(C)C(C)c2n[nH]c(=O)c3cc(F)c(F)cc23)[nH]c2ccccc12 (racemic) [Compound 55, N-(1-(6,7-difluoro-4-oxo-3,4-dihydrophthalazin-1-yl)ethyl)-N,3-dimethyl-1H-indole-2-carboxamide] | 440
CC(c1n[nH]c(=O)c2cc(F)c(F)cc12)N(C)C(=O)c1cccc(C(F)F)c1 (racemic) [Compound 71, N-(1-(6,7-difluoro-4-oxo-3,4-dihydrophthalazin-1-yl)ethyl)-3-(difluoromethyl)-N-methylbenzamide] | 220
CC(C)CN(C(=O)Nc1ccc(F)cc1)C(C)c1n[nH]c(=O)c2cc(F)ccc12 (racemic) [Compound 16, 1-(1-(6-fluoro-4-oxo-3,4-dihydrophthalazin-1-yl)ethyl)-3-(4-fluorophenyl)-1-isobutylurea] | 16
CC(c1n[nH]c(=O)c2cc(F)c(F)cc12)N(C)C(=O)c1ccc(F)c(C(F)F)c1 (racemic) [Compound 72, N-(1-(6,7-difluoro-4-oxo-3,4-dihydrophthalazin-1-yl)ethyl)-3-(difluoromethyl)-4-fluoro-N-methylbenzamide] | 340
CC(C)CN(C(=O)Nc1ccc(F)c(Cl)c1)C(C)c1nn(C)c(=O)c2cc(F)c(F)cc12 (racemic) [Compound 23, 3-(3-chloro-4-fluorophenyl)-1-(1-(6,7-difluoro-3-methyl-4-oxo-3,4-dihydrophthalazin-1-yl)ethyl)-1-isobutylurea] | 3
CC(C)CN(C(=O)Nc1ccc(F)c(Cl)c1)C(C)c1n[nH]c(=O)c2cc(F)ccc12 (racemic) [Compound 15, 3-(3-chloro-4-fluorophenyl)-1-(1-(6-fluoro-4-oxo-3,4-dihydrophthalazin-1-yl)ethyl)-1-isobutylurea] | 10
CC(C)CN(C(=O)c1cc2ccccc2[nH]1)C(C)c1n[nH]c(=O)c2cc(F)c(F)cc12 (racemic) [Compound 56, N-(1-(6,7-difluoro-4-oxo-3,4-dihydrophthalazin-l-yl)ethyl)-N-isobutyl-1H-indole-2-carboxamide] | 390
CC(c1n[nH]c(=O)c2cc(F)ccc12)N(C)C(=O)Nc1ccc(F)c(Cl)c1 (racemic) [Compound 17, 3-(3-chloro-4-fluorophenyl)-1-(1-(6-fluoro-4-oxo-3,4-dihydrophthalazin-1-yl)ethyl)-1-methylurea] | 81
CC(c1n[nH]c(=O)c2cc(F)c(F)cc12)N(C)C(=O)c1ccc(C(F)(F)F)cc1 (racemic) [Compound 66, N-(1-(6,7-difluoro-4-oxo-3,4-dihydrophthalazin-1-yl)ethyl)-N-methyl-4-(trifluoromethyl)benzamide] | 100
CC(C)CN(C(=O)Nc1ccc(F)c(Cl)c1)C(C)c1n[nH]c(=O)c2cc(F)c(F)cc12 (racemic) [Compound 27, 3-(3-chloro-4-fluorophenyl)-1-(1-(6,7-difluoro-4-oxo-3,4-dihydrophthalazin-1-yl)ethyl)-1-isobutylurea] | 2
CC(c1n[nH]c(=O)c2cc(F)c(F)cc12)N(C)C(=O)[C@@H]1Cc2ccccc2N1 (stereo partly drawn) [Compound 78, (2S)-N-(1-(6,7-difluoro-4-oxo-3,4-dihydrophthalazin-1-yl)ethyl)-N-methylindoline-2-carboxamide] | 3640
CC(c1n[nH]c(=O)c2cc(F)c(F)cc12)N(C)C(=O)c1ccc(Br)c(F)c1 (racemic) [Compound 63, 4-bromo-N-(1-(6,7-difluoro-4-oxo-3,4-dihydrophthalazin-1-yl)ethyl)-3-fluoro-N-methylbenzamide] | 60

same assay, conditions: Hepatitis B virus, HepDE19, 168 h, read-out: DE-19bDNA EC50

SMILES | EC50 [nM]
C[C@H](c1n[nH]c(=O)c2cc(F)c(F)cc12)N(C)C(=O)Nc1ccc(F)cc1 [Compound 43, (R)(1-(6,7-difluoro-4-oxo-3,4-dihydrophthalazinyl)ethyl)-3-(4-fluorophenyl)methylurea] | 59
C[C@H](c1n[nH]c(=O)c2cc(F)c(F)cc12)N(C)C(=O)Nc1ccc(F)c(F)c1 [Compound 41, (R)(1-(6,7-difluoro-4-oxo-3,4-dihydrophthalazinyl)ethyl)methyl-3-(3,4-difluorophenyl)urea] | 24
CCN(C(=O)c1cc2cc(F)ccc2[nH]1)C(C)c1n[nH]c(=O)c2cc(F)c(F)cc12 (racemic) [Compound 47, N-(1-(6,7-difluoro-4-oxo-3,4-dihydrophthalazin-1-yl)ethyl)-N-ethyl-5-fluoro-1H-indole-2-carboxamide] | 41
CC(C)CN(C(=O)Nc1ccccc1)C(C)c1n[nH]c(=O)c2cc(F)c(F)cc12 (racemic) [Compound 28, 1-(1-(6,7-difluoro-4-oxo-3,4-dihydrophthalazin-1-yl)ethyl)-1-isobutyl-3-phenylurea] | 12
C[C@@H](c1nn(C)c(=O)c2cc(F)c(F)cc12)N(C)C(=O)Nc1ccc(F)c(Cl)c1 [Compound 37, (S)-3-(3-chloro-4-fluorophenyl)-1-(1-(6,7-difluoro-3-methyl-4-oxo-3,4-dihydrophthalazin-1-yl)ethyl)-1-methylurea] | 2300
